Measured values reported in patent publication US7807676B2, “Diketo-Piperazine and Piperidine derivatives as antiviral agents” (priority 2006, dated 2010).
Structures can show the parent of a compound that is named as a salt.

tested on: HIV-1 single-round infectious reporter virus; assay: Single-round infectious HIV-1 luciferase reporter virus infection of HeLa CD4 cells (antiviral EC50); assay type: cell-based; conditions: Human immunodeficiency virus 1, HeLa, read-out: EC50 Group from Table 3
Experimental: • Virus production—Human embryonic Kidney cell line, 293T, was propagated in Dulbecco's Modified Eagle Medium (Invitrogen, Carlsbad, Calif.) containing 10% fetal Bovine serum (FBS, Sigma, St. Louis, Mo.). • Virus infection—Human epithelial cell line, HeLa, expressing the HIV-1 receptor CD4 was propagated in Dulbecco's Modified Eagle Medium (Invitrogen, Carlsbad, Calif.) containing 10% fetal Bovine serum (FBS, Sigma, St. Louis, Mo.) and supplemented with 0.2 mg/mL Geneticin (Invitrogen, Carlsbad, Calif.). Virus-Single-round infectious reporter virus was produced by co-transfecting human embryonic Kidney 293 cells with an HIV-1 envelope DNA expression vector and a proviral cDNA containing an envelope deletion mutation and the luciferase reporter gene inserted in place of HIV-1 nef sequences (Chen et al, Ref. 41). Transfections were performed using lipofectAMINE PLUS reagent as described by the manufacturer (Invitrogen, Carlsbad, Calif.). Experiment • 1. HeLa CD4 cells were plated in 96 well plates at a cell density of 1×10^4 cells per well in 100 μl Dulbecco's Modified Eagle Medium containing 10% fetal Bovine serum and incubated overnight. • 2. Compound was added in a 2 μl dimethylsulfoxide solution, so that the final assay concentration would be ≦10 μM. • 3. 100 μl of single-round infectious reporter virus in Dulbecco's Modified Eagle Medium was then added to the plated cells and compound at an approximate multiplicity of infection (MOI) of 0.01, resulting in a final volume of 200 μl per well. • 4. Virally-infected cells were incubated at 37 degrees Celsius, in a CO2 incubator, and harvested 72 h after infection. • 5. Viral infection was monitored by measuring luciferase expression from viral DNA in the infected cells using a luciferase reporter gene assay kit, as described by the manufacturer (Roche Molecular Biochemicals, Indianapolis, Ind.). Infected cell supernatants were removed and 50 μl of lysis buffer was added per well. After 15 minutes, 50 μl of freshly-reconstituted luciferase assay reagent was added per well. Luciferase activity was then quantified by measuring luminescence using a Wallac microbeta scintillation counter. • 6. The percent inhibition for each compound was calculated by quantifying the level of luciferase expression in cells infected in the presence of each compound as a percentage of that observed for cells infected in the absence of compound and subtracting such a determined value from 100. • 7. An EC50 provides a method for comparing the antiviral potency of the compounds of this disclosure. The effective concentration for fifty percent inhibition (EC50) was calculated with the Microsoft Excel Xlfit curve fitting software. For each compound, curves were generated from percent inhibition calculated at 10 different concentrations by using a four parameter logistic model (model 205). Table 3 is the key for the data in Table 4. Results

SMILES | EC50
O=C(C(=O)N1CCN(c2nnnn2-c2ccccc2)CC1)c1c[nH]c2c(-c3cc(C(=O)N4CC[C@@H](O)C4)[nH]n3)ncc(F)c12 [F-3] | < 500 nM
CN(C)CCCNC(=O)c1cc(-c2ncc(F)c3c(C(=O)C(=O)N4CCN(c5nnnn5-c5ccccc5)CC4)c[nH]c23)nn1C [B-45] | < 500 nM
O=C(C(=O)N1CCN(c2cccc(-c3ccccc3)c2)CC1)c1c[nH]c2c(-n3ccnn3)ncc(F)c12 [A-3] | < 500 nM
COc1cnc(-c2cncc(F)c2)c2[nH]cc(C(=O)C(=O)N3CCN(c4nnnn4-c4ccccn4)CC3)c12 [H-1] | < 500 nM
COc1cnc(-c2ccc(N3CCN(C(=O)NC(C)(C)C)CC3)cc2)c2[nH]cc(C(=O)C(=O)N3CCN(c4nnnn4-c4ccccn4)CC3)c12 [B-86] | < 500 nM
COc1nc(N2CCN(C(=O)C(=O)c3c[nH]c4c(-n5cnc(C)n5)ncc(OC)c34)CC2)n(-c2ccccc2)n1 [G-29b] | < 500 nM
COc1cnc(-n2cnc(C)n2)c2[nH]cc(C(=O)C(=O)N3CCN(c4nc(N(C)C)n(-c5ccccc5)n4)CC3)c12 [G-4d] | < 500 nM
Nc1ccn(-c2ncc(F)c3c(C(=O)C(=O)N4CCN(c5nnnn5-c5ccccc5)CC4)c[nH]c23)n1 [B-4, 1-(7-(3-amino-1H-pyrazol-1-yl)-4-fluoro-1H-pyrrolo[2,3-c]pyridin-3-yl)-2-(4-(1-phenyl-1H-tetrazol-5-yl)piperazin-1-yl)ethane-1,2-dione] | < 500 nM
COc1cnc(-c2cnc(N3CCOCC3)cn2)c2[nH]cc(C(=O)C(=O)N3CCN(c4nnnn4-c4ccccc4)CC3)c12 [G-2b] | < 500 nM
CC(=O)NCCNC(=O)c1cc(-c2ncc(F)c3c(C(=O)C(=O)N4CCN(c5nnnn5-c5ccccc5)CC4)c[nH]c23)n[nH]1 [F-14] | < 500 nM
COc1cnc(-c2cc(CNCCN(C)C)[nH]n2)c2[nH]cc(C(=O)C(=O)N3CCN(c4nnnn4-c4ccccc4)CC3)c12 [B-25, 1-(7-(5-((2-(dimethylamino)ethylamino)methyl)-1H-pyrazol-3-yl)-4-methoxy-1H-pyrrolo[2,3-c]pyridin-3-yl)-2-(4-(1-phenyl-1H-tetrazol-5-yl)piperazin-1-yl)ethane-1,2-dione TFA] | < 500 nM
CN1CCCC1CCNC(=O)c1cc(-c2ncc(F)c3c(C(=O)C(=O)N4CCN(c5nnnn5-c5ccccc5)CC4)c[nH]c23)n[nH]1 (centres unmarked) [F-13] | < 500 nM
COc1cnc(-n2cnc(C)n2)c2[nH]cc(C(=O)C(=O)N3CCN(c4nc(C)nc5scc(-c6ccccc6)c45)C[C@H]3C)c12 [D-10] | < 500 nM
COc1cnc(-n2cnc(C)n2)c2[nH]cc(C(=O)C(=O)N3CCN(c4nnnn4-c4ccccc4)C[C@@H]3C)c12 [A-31] | < 500 nM
COc1cnc(-n2cnc(C)n2)c2[nH]cc(C(=O)C(=O)N3CCN(c4nncn4-c4ccccc4)CC3)c12 [A-44] | < 500 nM
O=C(C(=O)N1CCN(c2ncccc2I)CC1)c1c[nH]c2c(-n3ccnn3)ncc(F)c12 [D-5] | < 500 nM
COC(=O)c1ccc(F)c2c(C(=O)C(=O)N3CCN(c4nnnn4-c4ccccc4)CC3)c[nH]c12 [A-25] | < 500 nM
CN(C)CCCN(C)C(=O)c1cc(-c2ncc(F)c3c(C(=O)C(=O)N4CCN(c5nnnn5-c5ccccc5)CC4)c[nH]c23)n[nH]1 [B-38] | < 500 nM
O=C(C(=O)N1CCN(c2nnnn2-c2ccccc2)CC1)c1c[nH]c2c(-c3cc(C(=O)N4CCN(CCN5CCOCC5)CC4)[nH]n3)ncc(F)c12 [F-7] | < 500 nM
COc1cnc(-c2cnc(C)s2)c2[nH]cc(C(=O)C(=O)N3CCN(c4nnnn4-c4ccccn4)CC3)c12 [B-90] | < 500 nM
COc1cnc(-c2ccc(N3CCN(C(=O)OCC(C)C)CC3)cc2)c2[nH]cc(C(=O)C(=O)N3CCN(c4nnnn4-c4ccccn4)CC3)c12 [B-84] | < 500 nM
CCOC(=O)c1cc(-c2ncc(F)c3c(C(=O)C(=O)N4CCN(c5c[nH]nc5-c5ccccc5)CC4)c[nH]c23)n[nH]1 [B-51] | < 500 nM
N#Cc1ncc(F)c2c(C(=O)C(=O)N3CCN(c4nnnn4-c4ccccc4)CC3)c[nH]c12 [B-46] | > 500 nM
CCOc1ccccc1N1CCN(C(=O)C(=O)c2c[nH]c3c(-n4ccnn4)ncc(F)c23)CC1 [A-50] | < 500 nM
COc1cnc(-n2cnc(C)n2)c2[nH]cc(C(=O)C(=O)N3CCC(c4nccn4-c4ccccc4)CC3)c12 [G-18b] | < 500 nM
COc1cnc(-n2cnc(C)n2)c2[nH]cc(C(=O)C(=O)N3CCN(c4ncnc5cc(-c6ccccc6)sc45)C[C@H]3C)c12 [D-11] | > 500 nM
COc1cnc(-n2cnc(C)n2)c2[nH]cc(C(=O)C(=O)N3CCN(c4nnnn4-c4ccccc4)CC3)c12 [A-9] | < 500 nM

SMILES | EC50
COc1cnc(-c2cscn2)c2[nH]cc(C(=O)C(=O)N3CCN(c4nnnn4-c4ccccn4)CC3)c12 [B-70] | < 500 nM
CC(=O)N1CCN(C(=O)c2cc(-c3ncc(F)c4c(C(=O)C(=O)N5CCN(c6nnnn6-c6ccccc6)CC5)c[nH]c34)n[nH]2)CC1 [F-5] | < 500 nM
O=C(C(=O)N1CCN(c2cn(Cc3ccccn3)nc2-c2ccccc2)CC1)c1c[nH]c2c(-n3ccnn3)ncc(F)c12 [G-7b] | < 500 nM
O=C(C(=O)N1CCN(c2nn[nH]c2-c2nccs2)CC1)c1c[nH]c2c(-n3ccnn3)ncc(F)c12 [G-25a] | < 500 nM
COc1cnccc1-c1ncc(OC)c2c(C(=O)C(=O)N3CCN(c4nnnn4-c4ccccn4)CC3)c[nH]c12 [H-5] | < 500 nM
O=C(C(=O)N1CCC(N2CCC2c2ccccc2)CC1)c1c[nH]c2c(-n3ccnn3)ncc(F)c12 (centres unmarked) [A-24] | > 500 nM
CCC(O)(CC)c1cc(-c2ncc(OC)c3c(C(=O)C(=O)N4CCN(c5nnnn5-c5ccccn5)CC4)c[nH]c23)n[nH]1 [B-78] | < 500 nM
C[C@@H]1CN(c2nnnn2-c2ccccc2)CCN1C(=O)C(=O)c1c[nH]c2c(-n3ccnn3)ncc(F)c12 [A-14] | < 500 nM
COc1cnc(-c2ccn(CC(=O)N(C)C)n2)c2[nH]cc(C(=O)C(=O)N3CCN(c4nnnn4-c4ccccn4)CC3)c12 [B-76] | > 500 nM
O=C(C(=O)N1CCN(c2nonc2-c2ccccc2)CC1)c1c[nH]c2c(-n3ccnn3)ncc(F)c12 [G-1b] | < 500 nM
C[C@@H]1CN(c2nnnn2-c2ccccc2)[C@@H](C)CN1C(=O)C(=O)c1c[nH]c2c(-n3ccnn3)ncc(F)c12 [A-26] | < 500 nM
O=C(C(=O)N1CCC(c2nc(-c3cccnc3)no2)CC1)c1c[nH]c2c(-n3ccnn3)ncc(F)c12 [A-34] | > 500 nM
COc1cc[n+]([O-])c2[nH]cc(C(=O)C(=O)N3CCN(c4nnnn4-c4ccccc4)CC3)c12 [B-32] | > 500 nM
COc1cnc(-n2cnc(C)n2)c2[nH]cc(C(=O)C(=O)N3CCN(c4nn[nH]c4-c4ccccn4)CC3)c12 [G-24b] | < 500 nM
N#CCCC(=O)c1cccnc1N1CCN(C(=O)C(=O)c2c[nH]c3c(-n4ccnn4)ncc(F)c23)CC1 [D-45] | > 500 nM
COc1cnc(Nc2ccncn2)c2[nH]cc(C(=O)C(=O)N3CCN(c4nnnn4-c4ccccn4)CC3)c12 [B-92] | < 500 nM
COc1cnc(-n2cc(C)nn2)c2[nH]cc(C(=O)C(=O)N3CCN(c4nnnn4-c4ccccn4)CC3)c12 [G-31] | < 500 nM
O=C(C(=O)N1CCN(c2nc3ccccc3n2-c2ccccc2)CC1)c1c[nH]c2c(-n3ccnn3)ncc(F)c12 [A-37] | < 500 nM
COc1cnc(-c2cncnc2)c2[nH]cc(C(=O)C(=O)N3CCN(c4nnnn4-c4ccccc4)CC3)c12 [B-63] | < 500 nM
COc1cnc(-c2cncs2)c2[nH]cc(C(=O)C(=O)N3CCN(c4nnnn4-c4ccccn4)CC3)c12 [B-71] | < 500 nM
COc1cnc(-c2ccc(C#N)nc2)c2[nH]cc(C(=O)C(=O)N3CCN(c4nnnn4-c4ccccn4)CC3)c12 [H-11] | < 500 nM
O=C(C(=O)N1[C@@H]2CC[C@H]1CN(c1nnnn1-c1ccccc1)C2)c1c[nH]c2c(-n3ccnn3)ncc(F)c12 [A-71] | < 500 nM
COc1cnc(-n2cnc(C)n2)c2[nH]cc(C(=O)C(=O)N3CCN(c4nsnc4Cl)CC3)c12 [D-20] | < 500 nM
COc1cnc(-c2cc(C(=O)NCCN3CCOCC3)[nH]n2)c2[nH]cc(C(=O)C(=O)N3CCN(c4nnnn4-c4ccccc4)CC3)c12 [B-13, 3-(4-methoxy-3-(2-oxo-2-(4-(1-phenyl-1H-tetrazol-5-yl)piperazin-1-yl)acetyl)-1H-pyrrolo[2,3-c]pyridin-7-yl)-N-(2-morpholinoethyl)-1H-pyrazole-5-carboxamide.TFA] | < 500 nM
O=C(NCCO)c1ncc(F)c2c(C(=O)C(=O)N3CCN(c4nnnn4-c4ccccc4)CC3)c[nH]c12 [B-55] | < 500 nM
O=C(C(=O)N1CCN(c2nn[nH]c2-c2ccccn2)CC1)c1c[nH]c2c(-n3ccnn3)ncc(F)c12 [G-24a] | < 500 nM
